Literature values in patent US11078226B2, “Fluorogenic glycosidase substrate and associated detection method” (ECOLE NORMALE SUPERIEURE DE LYON, priority 2016, dated 2021).

Details: cited from earlier work

## O=c1[nH]c(-c2cc(Cl)ccc2O)nc2ccc(Cl)cc12 [dichloro-HPQ, 6-chloro-2-(5-chloro-2-hydroxyphenyl)-4(3H)-quinazolinone]
  solubility in aqueous/physiological media: completely insoluble
